# Reference: patent publication US10301294B2, “Compounds for the treatment of tuberculosis” (priority 2013, dated 2019)
# Read-outs that look alike come from different tables or passages of the source.
# Tests used:
# [1] = tested on: replicating M. tuberculosis H37Rv; assay type: cell-based; settings: FIG. 1A; read-out: IC90 against replicating, logarithmically growing bacteria measured by OD600 (converted)
# [2] = tested on: replicating M. tuberculosis H37Rv; test: microbe, parasite or virus in culture; assay type: cell-based; settings: for Against Replicating Mtb, % @ 125: at 125 uM; for Against Replicating Mtb, % @ 62: at 62 uM
# [3] = tested on: carbon-starved M. tuberculosis H37Rv; test: Non-replicating IC90 determination by luciferase (carbon-starved cells); assay type: cell-based; settings: FIG. 1C; read-out: IC90 for non-replicating starved cells by luciferase assay
# [4] = tested on: carbon-starved M. tuberculosis H37Rv; test: microbe, parasite or virus in culture; assay type: cell-based
# TB = test: MIC of control anti-tuberculosis antibiotics; assay type: cell-based, M. tuberculosis; settings: Mycobacterium tuberculosis
# [5] = Mycobacterium tuberculosis, H37RV, read-out: Against carbon starving non-replicating Mtb IC90
# [6] = Mycobacterium tuberculosis, H37RV, read-out: Against Replicating Mtb IC90
smiles,measurement,setting,value
Clc1ccc(-c2nnc(SCc3cn(-c4ccccc4)nn3)o2)cc1,IC90,[1],> 62 µM
same,IC90,"[2]; FIG. 1B, read-out: IC90 against replicating, logarithmically growing bacteria measured by CFU/mL (converted)",> 62 µM
same,IC90,[3],> 62 µM
same,IC90,"[4]; FIG. 1D, read-out: IC90 against non-replicating, starved cells by CFU/mL",1 µM
"NNC(=O)c1ccncc1 [INH, isoniazid]",MIC,TB,0.1 µg/mL
c1ccc(-c2nnc(SCc3ccccn3)o2)cc1 [drawing 261],"Against Replicating Mtb, % @ 125",[2]; […],99% @ 125
same,IC90,[4]; [5],4 µM
COCC[S+]([O-])c1nnc(-c2ccc(Cl)cc2)o1 (stereo not shown) [drawing 265],IC90,[4]; [5],10 µM
Brc1ccc(-c2nnc(SCc3ccccn3)o2)cc1 [drawing 266],IC90,[4]; [5],< 8 µM
[O-][S+](Cc1ccccc1)c1nnc(-c2ccccc2)o1 (stereo not shown) [drawing 267],"Against Replicating Mtb, % @ 31","[2]; […], at 31 uM",100% @ 31
same,IC90,[4]; [5],4 µM
O=S(=O)(Cc1ccccc1)c1nnc(-c2ccccc2)o1 [drawing 268],IC90,[4]; [5],62 µM
Fc1ccc(-c2nnc(SCc3ccccn3)o2)cc1 [drawing 269],"Against Replicating Mtb, % @ 16","[2]; […], at 16 uM",98.5% @ 16
same,"Against carbon starving non-replicating Mtb, % @ 4",[4],99% @ 4
Fc1cccc(-c2nnc(SCc3ccccn3)o2)c1 [drawing 270],IC90,[2]; [6],31 µM
same,IC90,[4]; [5],< 8 µM
Brc1cccc(-c2nnc(SCc3ccccn3)o2)c1 [drawing 271],"Against Replicating Mtb, % @ 62",[2]; […],96% @ 62
same,IC90,[4]; [5],< 8 µM
[O-][S+](Cc1cn(Cc2ccccc2)nn1)c1nnc(-c2ccc(Cl)cc2)o1 (stereo not shown) [drawing 272],"Against Replicating Mtb, % @ 62",[2]; […],100% @ 62
same,"Against carbon starving non-replicating Mtb, % @ 31","[4]; […], at 31 uM",100% @ 31
Clc1ccc(-c2nnc(SCc3cn(Cc4ccccc4)nn3)o2)cc1 [drawing 273],"Against Replicating Mtb, % @ 125",[2]; […],98% @ 125
same,"Against carbon starving non-replicating Mtb, % @ 4",[4],99% @ 4
COc1cccc(-c2nnc(SCc3ccccn3)o2)c1 [drawing 274],"Against Replicating Mtb, % @ 62",[2]; […],99% @ 62
same,"Against carbon starving non-replicating Mtb, % @ 16","[4]; […], at 16 uM",99% @ 16
COc1ccc(CSc2nnc(-c3ccc(Cl)cc3)o2)nc1 [drawing 275],"Against Replicating Mtb, % @ 16 (7 d)","[2]; […], at 16 uM, 7 d",99.5% @ 16 (7 d)
same,"Against carbon starving non-replicating Mtb, % @ 4",[4],99% @ 4
COC(=O)CCCOc1ccc(CSc2nnc(-c3ccc(Cl)cc3)o2)nc1 [drawing 276],IC90,[2]; [6],31 µM
same,"Against carbon starving non-replicating Mtb, % @ 8",[4],99% @ 8
[N-]=[N+]=NCCOCCNC(=O)CCCOc1ccc(CSc2nnc(-c3ccc(Cl)cc3)o2)nc1 [drawing 277],"Against carbon starving non-replicating Mtb, % @ 8",[4],98% @ 8
[N-]=[N+]=NCCOCCNC(=O)CCCOc1ccc(C[S+]([O-])c2nnc(-c3ccc(Cl)cc3)o2)nc1 (stereo not shown) [drawing 278],"Against carbon starving non-replicating Mtb, % @ 8",[4],97% @ 8
CO[C@H]1/C=C/O[C@@]2(C)Oc3c(C)c(O)c4c(O)c(c(/C=N/N5CCN(C)CC5)c(O)c4c3C2=O)NC(=O)/C(C)=C\C=C\[C@H](C)[C@H](O)[C@@H](C)[C@@H](O)[C@@H](C)[C@H](OC(C)=O)[C@@H]1C [rifampin],MIC,TB,0.01 µg/mL
